The values below come from patent US20080241919A1, “Defined media for pluripotent stem cell culture” (The Burnham Institute of Medical Research, priority 2003, published 2008).

In assay [1] the test system is acetylated histone H3 and H4, Myc, Tip60 HAT, p300 HAT. Put plainly: Chromatin state immunofluorescence (acetylated H3/H4, Myc, Tip60, p300) in hESCs. To be noted: named factor omitted from the media. The format is cell-based, human. The text has this:
(c) Presence of both bFGF and insulin is essential for maintenance of an acetylated transcriptionally active chromatin state in undifferentiated hESCs. When either bFGF or insulin is omitted from the media, the differentiated hESC colonies express the differentiation-associated cell surface marker SSEA-1 [B, C] […] (green), Myc [E, F] (red), and histone acetyltransferase (HAT) Tip60 [I, K] (green) and p300 [J, K] […] All cells are indicated by DAPI staining of their nuclei (blue).
To discover the minimal essential conditions needed to support the long-term growth of undifferentiated hESCs, morphological analysis was used to assess the developmental stage of hESCs at different times. For these analyses hESCs were grown in a 6- or 12-well plate to maturation (day 6 or 7 after seeding) before being fixed and visualized under a phase contrast microscope. Cellular immunofluorescence was also employed to assess the state of differentiation of hESCs. […] The state of differentiation of hESC was further assessed by generating (via lentiviral-mediated transduction) hESCs carrying a reporter gene (enhanced green fluorescence protein (EGFP)) under control of the Oct-4 promoter. Using these transfected hESCs (carrying Oct-4 driven EGFP), the undifferentiated state of hESCs can be visualized by green fluorescence (indicating Oct-4 expression). […]

Assay [2] deals with human embryonic stem cells (hESCs). In words: Undifferentiated growth of hESCs on human foreskin fibroblast (HFF) feeder layer. The format is cell-based. The protocol: Next, in order to establish a culture system that was free of non-human animal products, the human foreskin fibroblast (HFF) cell line Hs27 was used as a feeder layer. The human foreskin fibroblast (HFF) cell line, Hs27 (ATCC; Manassas, Va.; www.atcc.org) was expanded to create a master bank of frozen cells. The HFFs were plated in gelatin pre-coated 60 mm plates or 6-well plates at a density of 1.7×10^4/cm^2 and inactivated by irradiating at 50 Gy using a ^137Cs gamma-irradiator before being used as feeder cells. Undifferentiated hESCs, although originally maintained on MEFs, were transferred to plates of HFFs that had been mitotically inactivated by gamma irradiation. In the first attempts to transfer the hESCs to the human feeder layers, far more differentiated cells compared to those grown on MEFs were observed. When dealing with hESCs, the undifferentiated state was assessed by three criteria: (a) distinctive and defining stage-specific morphology and size; (b) the expression of immunomarkers associated with pluripotency; and (c) the absence of immunomarkers associated with lineage commitment.
In this media, less than 80% undifferentiated hESC colonies were observed on HFF feeders on every passage.

For the substance “bFGF: basic fibroblast growth factor, growth factor added to the defined hESC media”, in assay [1], the “immunoreactivity to acetylated H3 and H4, Myc, Tip60 HAT, nuclear focal localization of p300 HAT” value was “undetectable or weak immunoreactivity”. Also, the “size of hESC colonies on HFFs” value in assay [2] (bFGF increased to 20 ng/ml from 4 ng/ml) is “significantly larger”. In assay [2] (medium with bFGF 20 ng/ml), the “number of passages undifferentiated hESCs maintained on HFF feeder layers” value is “more than 50 passages” and the “time undifferentiated hESCs maintained on HFF feeder layers” value is given as “over 12 months”. For the same substance, in assay [2] (medium with bFGF 20 ng/ml, 20% knockout Serum Replacement), the “undifferentiated hESC colonies on HFF feeders on every passage” value is on record as “less than 80%”.
